Format in all cases: biochemical
The target in test [1] is T1, PI3Kγ (Homo sapiens, UniProt P48736).
T1 construct: purchased Invitrogen or Millipore
The test can be described thus: KinaseGLO luminescent PI3-kinase assay, PI3Kγ. Here is the method:
(§1) Compound Preparation: KinaseGLO assay: 30× stocks of inhibitors were prepared in DMSO. A 10 mM master stock was prepared and all other stocks were generated by serial dilution of this master stock in DMSO. The final concentration of DMSO in the kinase reaction was 3.3% (v/v).
(§2) PI3-Kinase Assay: The KinaseGLO® Luminescent Kinase Assay (Promega) is a luciferin-luciferase based luminescent assay that utilizes a proprietary thermostable luciferase to quantify the ATP remaining in a solution after a kinase reaction. The luminescent signal generated using KinaseGLO® directly correlates with ATP concentration, and therefore inversely correlates with kinase activity.
(§3) PI3K enzyme sample was thawed and diluted to 100 ng/μL in enzyme dilution buffer (50 mM HEPES, pH7.5, 3.0 mM MgCl2, 1.0 mM EGTA) and stored on ice. PI3Kα enzyme was diluted to a final concentration of 1 ng/μL in reaction buffer (for PI3Kα; 50 mM HEPES, pH7.5, 100 mM NaCl, 2.0 mM DTT, 3.0 mM MgCl2, 1.0 mM EGTA, 10 μM ATP) and gently mixed. 25 μL of this kinase reaction was then aliquoted into test wells in a Microfluor2 white 96-well plate (Thermo Scientific). As a preincubation step, 1 μl of 30× compound dilutions was added to the appropriate test wells to generate a ten point dose-response ranging from 0.0 μM-10 μM inhibitor. […] Luminescent signal was detected using a SpectraMax M5 (Molecular Devices). Maximal luminescence (no PI3K activity/maximal PI3K inhibition) was determined from reaction buffer plus SC-PI substrate only controls. The minimal signal (maximal PI3K activity) was determined by the 0.0 μM compound (DMSO only) control. IC50 values were calculated via non-linear regression using GraphPad Prism data analysis software.
(§4) Compounds were assayed against the Class I PI3Kα, PI3Kβ, PI3Kγ, PI3Kδ, PI3Kα(H1047R) and PI3Kα(E545K) in the KinaseGLO assay as described in Example 2, and against the Class IV PI3K mTOR in the radiometric assay. IC50 values (μM) were determined using 8-10 point half-log dose dilutions and calculated via nonlinear regression analysis using Graphpad Prism data analysis software.

Test [2] addresses T2, PI3Kδ (Homo sapiens, UniProt O00329).
T2 construct: purchased Invitrogen or Millipore
The test can be described thus: KinaseGLO luminescent PI3-kinase assay, PI3Kδ. Here is the method: as §1, §2, §3, §4
(Kinase-Glo measures the ATP left after a reaction by luminescence.)

The target of test [3] is T3, PI3Kα(E545K) (Homo sapiens, UniProt P42336, E545K).
T3 construct: purchased Invitrogen or Millipore
Kind of test: KinaseGLO luminescent PI3-kinase assay, mutant PI3Kα(E545K). The protocol:
as §1, §2, §3, §4

Test [4] addresses T4, PI3Kβ (Homo sapiens, UniProt P42338).
T4 construct: purchased Invitrogen or Millipore
Kind of test: KinaseGLO luminescent PI3-kinase assay, PI3Kβ. The protocol:
as §1, §2, §3, §4

From US20110212053A1, “PHOSPHATIDYLINOSITOL 3 KINASE INHIBITORS” (priority 2008, published 2011) come the findings set out here.

“And” between values parts separate entries of the source, which are not always exact repeats. Equal values may be shown once. Some results are limits rather than exact numbers.

For orientation: IC50 means the concentration that gives 50% inhibition. The low end stands for higher potency, the high end for lower potency.

T2 sequence (O00329 whole entry): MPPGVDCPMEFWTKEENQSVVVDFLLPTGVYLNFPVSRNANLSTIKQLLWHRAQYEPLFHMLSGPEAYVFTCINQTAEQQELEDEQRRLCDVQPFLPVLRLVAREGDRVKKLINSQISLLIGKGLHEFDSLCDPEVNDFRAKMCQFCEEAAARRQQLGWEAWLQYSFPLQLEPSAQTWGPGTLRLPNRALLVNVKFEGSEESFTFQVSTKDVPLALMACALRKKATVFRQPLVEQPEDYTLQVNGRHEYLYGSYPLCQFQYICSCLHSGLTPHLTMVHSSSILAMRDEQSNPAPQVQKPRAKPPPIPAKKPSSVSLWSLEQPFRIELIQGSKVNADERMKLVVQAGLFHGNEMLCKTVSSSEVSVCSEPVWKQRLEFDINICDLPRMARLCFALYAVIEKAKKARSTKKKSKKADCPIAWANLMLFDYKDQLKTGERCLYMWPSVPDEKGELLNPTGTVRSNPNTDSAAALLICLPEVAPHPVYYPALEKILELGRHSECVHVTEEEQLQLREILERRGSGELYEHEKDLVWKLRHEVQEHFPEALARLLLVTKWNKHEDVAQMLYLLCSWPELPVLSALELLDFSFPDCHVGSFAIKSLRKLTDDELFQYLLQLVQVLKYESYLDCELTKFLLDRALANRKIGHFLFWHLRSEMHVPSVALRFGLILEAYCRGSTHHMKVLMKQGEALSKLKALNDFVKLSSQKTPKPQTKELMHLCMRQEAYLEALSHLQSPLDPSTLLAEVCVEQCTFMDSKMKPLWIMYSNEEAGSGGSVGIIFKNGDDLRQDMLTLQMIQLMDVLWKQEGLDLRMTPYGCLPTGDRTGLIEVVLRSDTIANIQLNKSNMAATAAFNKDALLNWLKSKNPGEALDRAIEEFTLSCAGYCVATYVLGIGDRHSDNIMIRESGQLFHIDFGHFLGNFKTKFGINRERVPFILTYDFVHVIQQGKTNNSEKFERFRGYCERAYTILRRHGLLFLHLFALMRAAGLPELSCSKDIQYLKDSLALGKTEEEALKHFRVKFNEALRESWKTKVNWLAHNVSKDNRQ
T2 sequence (P27986 whole entry partner): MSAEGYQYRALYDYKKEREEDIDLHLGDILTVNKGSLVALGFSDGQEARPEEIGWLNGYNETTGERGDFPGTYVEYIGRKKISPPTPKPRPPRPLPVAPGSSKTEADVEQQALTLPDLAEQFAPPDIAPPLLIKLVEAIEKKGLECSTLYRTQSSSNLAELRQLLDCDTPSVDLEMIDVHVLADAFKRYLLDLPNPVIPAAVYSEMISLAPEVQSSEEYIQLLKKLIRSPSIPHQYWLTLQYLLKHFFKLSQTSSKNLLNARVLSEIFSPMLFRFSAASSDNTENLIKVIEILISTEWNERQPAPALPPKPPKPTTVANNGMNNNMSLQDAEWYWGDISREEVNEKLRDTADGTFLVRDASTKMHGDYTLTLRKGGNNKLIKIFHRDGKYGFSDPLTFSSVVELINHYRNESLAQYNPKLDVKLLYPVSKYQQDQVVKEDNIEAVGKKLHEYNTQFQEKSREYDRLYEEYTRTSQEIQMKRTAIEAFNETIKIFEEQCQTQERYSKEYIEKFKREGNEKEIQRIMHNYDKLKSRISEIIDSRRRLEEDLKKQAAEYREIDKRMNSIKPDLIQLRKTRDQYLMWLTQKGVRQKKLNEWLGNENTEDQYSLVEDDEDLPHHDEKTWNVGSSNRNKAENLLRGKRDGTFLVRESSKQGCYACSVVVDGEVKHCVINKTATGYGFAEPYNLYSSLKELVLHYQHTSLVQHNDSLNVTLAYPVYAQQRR
T3 sequence (P42336 whole entry E545K): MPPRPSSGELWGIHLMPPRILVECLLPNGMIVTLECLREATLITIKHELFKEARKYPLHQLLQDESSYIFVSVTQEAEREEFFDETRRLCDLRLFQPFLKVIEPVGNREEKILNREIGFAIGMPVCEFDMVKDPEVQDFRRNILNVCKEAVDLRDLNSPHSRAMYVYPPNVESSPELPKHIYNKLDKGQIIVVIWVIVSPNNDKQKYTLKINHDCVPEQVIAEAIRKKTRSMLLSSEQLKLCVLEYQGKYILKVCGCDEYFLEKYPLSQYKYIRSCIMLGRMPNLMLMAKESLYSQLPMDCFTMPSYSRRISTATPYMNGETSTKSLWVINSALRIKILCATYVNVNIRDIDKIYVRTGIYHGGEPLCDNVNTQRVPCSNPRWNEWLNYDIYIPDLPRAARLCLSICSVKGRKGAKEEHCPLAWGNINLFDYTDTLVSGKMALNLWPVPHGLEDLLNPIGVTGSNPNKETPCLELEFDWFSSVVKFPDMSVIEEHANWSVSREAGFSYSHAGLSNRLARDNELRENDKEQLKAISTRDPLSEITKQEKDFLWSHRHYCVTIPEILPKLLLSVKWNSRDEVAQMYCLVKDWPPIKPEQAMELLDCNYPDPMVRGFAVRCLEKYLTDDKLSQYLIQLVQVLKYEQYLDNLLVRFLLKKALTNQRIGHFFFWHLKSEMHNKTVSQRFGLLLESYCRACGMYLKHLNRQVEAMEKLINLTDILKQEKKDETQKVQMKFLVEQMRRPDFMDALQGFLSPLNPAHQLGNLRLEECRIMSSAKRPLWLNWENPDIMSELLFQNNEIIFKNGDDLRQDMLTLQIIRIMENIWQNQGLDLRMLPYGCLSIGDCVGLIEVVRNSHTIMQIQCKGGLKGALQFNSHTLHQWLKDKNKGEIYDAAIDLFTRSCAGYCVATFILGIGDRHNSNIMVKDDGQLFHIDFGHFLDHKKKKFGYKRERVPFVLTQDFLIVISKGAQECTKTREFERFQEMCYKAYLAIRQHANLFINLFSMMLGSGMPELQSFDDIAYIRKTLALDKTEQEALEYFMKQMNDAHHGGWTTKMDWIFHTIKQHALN
T3 sequence (P27986 whole entry partner): as the sequence (P27986 whole entry partner) above
T1 sequence (P48736 whole entry): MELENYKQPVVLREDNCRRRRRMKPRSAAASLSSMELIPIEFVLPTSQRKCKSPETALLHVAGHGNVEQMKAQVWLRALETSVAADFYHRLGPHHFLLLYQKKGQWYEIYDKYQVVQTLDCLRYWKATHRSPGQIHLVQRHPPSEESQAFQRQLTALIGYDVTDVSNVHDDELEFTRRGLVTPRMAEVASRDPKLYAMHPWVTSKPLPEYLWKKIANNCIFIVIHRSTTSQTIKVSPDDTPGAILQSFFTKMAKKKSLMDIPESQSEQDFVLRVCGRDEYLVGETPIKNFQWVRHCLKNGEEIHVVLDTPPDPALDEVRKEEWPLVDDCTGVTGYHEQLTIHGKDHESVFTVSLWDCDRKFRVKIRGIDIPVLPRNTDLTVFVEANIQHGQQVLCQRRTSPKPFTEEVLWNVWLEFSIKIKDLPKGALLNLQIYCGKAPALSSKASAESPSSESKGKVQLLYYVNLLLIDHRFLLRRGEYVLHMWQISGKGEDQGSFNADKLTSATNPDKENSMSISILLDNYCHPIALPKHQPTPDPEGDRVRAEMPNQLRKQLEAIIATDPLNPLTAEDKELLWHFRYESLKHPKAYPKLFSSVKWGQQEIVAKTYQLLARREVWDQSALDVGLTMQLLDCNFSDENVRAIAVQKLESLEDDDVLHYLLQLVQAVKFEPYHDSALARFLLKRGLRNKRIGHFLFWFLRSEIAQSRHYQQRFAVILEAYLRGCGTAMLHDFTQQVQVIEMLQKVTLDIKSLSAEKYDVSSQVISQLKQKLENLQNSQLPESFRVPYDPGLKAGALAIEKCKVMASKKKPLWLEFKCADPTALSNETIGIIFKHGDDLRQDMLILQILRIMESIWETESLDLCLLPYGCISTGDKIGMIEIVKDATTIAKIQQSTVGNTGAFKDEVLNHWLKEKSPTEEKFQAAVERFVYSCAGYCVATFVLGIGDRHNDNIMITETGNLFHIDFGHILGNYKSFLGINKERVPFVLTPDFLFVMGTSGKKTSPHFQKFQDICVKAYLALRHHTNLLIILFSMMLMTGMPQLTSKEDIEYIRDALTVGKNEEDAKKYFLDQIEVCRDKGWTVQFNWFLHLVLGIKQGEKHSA
T4 sequence (P42338 whole entry): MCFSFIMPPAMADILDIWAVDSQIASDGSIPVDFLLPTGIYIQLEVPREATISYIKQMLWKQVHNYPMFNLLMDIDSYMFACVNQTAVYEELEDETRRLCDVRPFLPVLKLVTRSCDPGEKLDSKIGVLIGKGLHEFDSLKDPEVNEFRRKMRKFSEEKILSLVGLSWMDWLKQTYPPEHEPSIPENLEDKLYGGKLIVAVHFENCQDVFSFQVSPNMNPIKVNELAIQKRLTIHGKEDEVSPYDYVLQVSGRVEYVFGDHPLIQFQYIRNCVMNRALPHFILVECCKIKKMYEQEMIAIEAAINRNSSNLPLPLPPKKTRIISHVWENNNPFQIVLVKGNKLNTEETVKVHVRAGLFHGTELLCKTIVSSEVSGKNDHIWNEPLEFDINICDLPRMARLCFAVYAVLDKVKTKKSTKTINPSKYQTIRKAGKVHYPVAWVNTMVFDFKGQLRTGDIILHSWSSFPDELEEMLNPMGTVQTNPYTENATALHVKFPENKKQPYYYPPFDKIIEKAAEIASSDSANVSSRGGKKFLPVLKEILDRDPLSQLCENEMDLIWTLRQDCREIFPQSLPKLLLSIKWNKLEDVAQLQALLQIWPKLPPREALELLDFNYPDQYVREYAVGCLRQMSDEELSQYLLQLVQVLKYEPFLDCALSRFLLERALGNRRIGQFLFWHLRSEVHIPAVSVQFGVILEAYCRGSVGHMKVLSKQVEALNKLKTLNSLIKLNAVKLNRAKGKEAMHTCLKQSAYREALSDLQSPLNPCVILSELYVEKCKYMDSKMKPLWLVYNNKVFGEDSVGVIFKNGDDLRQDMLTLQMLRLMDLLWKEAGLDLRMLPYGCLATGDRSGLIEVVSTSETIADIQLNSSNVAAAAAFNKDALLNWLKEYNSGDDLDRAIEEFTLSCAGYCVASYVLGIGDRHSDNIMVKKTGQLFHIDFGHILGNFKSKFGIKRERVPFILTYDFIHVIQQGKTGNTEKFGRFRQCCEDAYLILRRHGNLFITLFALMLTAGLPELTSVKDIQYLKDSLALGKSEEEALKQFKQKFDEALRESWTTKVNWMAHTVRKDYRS
T4 sequence (P27986 whole entry partner): as the sequence (P27986 whole entry partner) above

As to `CC(C)(C#N)c1ccc(-c2n[nH]c3cnc4ccc(-c5cccnc5)cc4c23)cc1` [Compound 1107, 2-methyl-2-(4-(8-(pyridin-3-yl)-3H-pyrazolo[3,4-c]quinolin-1-yl)phenyl)propanenitrile], the IC50 in test [1] is 10 to 25 nM; in test [2], 10 to 35 nM; in test [3], < 10 nM; in test [4], 35 to 50 nM.
As for `CC(C)(C#N)c1ccc(-c2n[nH]c3cnc4ccc(-c5cnc6ccccc6c5)cc4c23)cc1` [Compound 1078, 2-methyl-2-(4-(8-(quinolin-3-yl)-3H-pyrazolo[3,4-c]quinolin-1-yl)phenyl)propanenitrile], the IC50 was 10 to 25 nM in test [1]; < 15 nM and 10 to 35 nM in test [2]; 15 to 55 nM in test [3]; > 50 nM in test [4].
Regarding `CC(C)(C#N)c1ccc(-c2n[nH]c3cnc4ccc(-c5ccc6ncccc6c5)cc4c23)cc1` [Compound 1110, 2-methyl-2-(4-(8-(quinolin-6-yl)-3H-pyrazolo[3,4-c]quinolin-1-yl)phenyl)propanenitrile], the IC50 is 10 to 25 nM in test [1], 10 to 35 nM in test [2], 15 to 55 nM in test [3] and > 50 nM in test [4].
